One data set addresses T1, COX-2 (Rattus norvegicus, UniProt P35355).
T1 construct: from tissue; host or cells: brain regions of QA-lesioned Wistar rats (in vivo injection, ex vivo counting)
T1 sequence (P35355 18-604): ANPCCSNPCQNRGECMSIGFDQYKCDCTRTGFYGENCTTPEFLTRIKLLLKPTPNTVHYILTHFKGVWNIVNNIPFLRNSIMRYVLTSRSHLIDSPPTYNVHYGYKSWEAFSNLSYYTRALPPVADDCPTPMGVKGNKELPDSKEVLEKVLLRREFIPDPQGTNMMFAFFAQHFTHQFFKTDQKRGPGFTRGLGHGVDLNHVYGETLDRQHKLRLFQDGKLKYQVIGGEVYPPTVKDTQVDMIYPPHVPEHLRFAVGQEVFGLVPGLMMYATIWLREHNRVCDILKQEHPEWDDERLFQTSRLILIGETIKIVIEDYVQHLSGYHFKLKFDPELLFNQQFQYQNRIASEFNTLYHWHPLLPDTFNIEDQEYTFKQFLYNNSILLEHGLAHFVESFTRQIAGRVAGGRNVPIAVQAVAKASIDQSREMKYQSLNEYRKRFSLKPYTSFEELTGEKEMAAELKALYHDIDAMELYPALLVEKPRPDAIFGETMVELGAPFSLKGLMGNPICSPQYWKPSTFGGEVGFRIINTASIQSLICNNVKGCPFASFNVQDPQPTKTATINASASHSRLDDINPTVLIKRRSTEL
Kind of data set: Ex vivo cerebral biodistribution and blocking studies in quinolinic acid lesioned rats. More on the design: species or system Wistar rats. From the text:
This model consists of a unilateral intrastriatal injection of quinolinic acid to induce excitotoxicity mediated via NMDA receptor activation. This animal model is well known in the literature to produce an inflammatory reaction induced by COX-2 activation in lesioned cerebral parenchyma.
The cerebral biodistribution of [^18F]16 in rats lesioned with QA was expressed as percent of injected dose per gram of tissue (%ID/g) and is shown in Figure 3.
Figure 3. Cerebral biodistribution of [^18F]16, 60 min after i.v. injection in rats, 7 days after focal intrastriatal injection of 150 nmol of quinolinic acid. In the “celecoxib” and “cold 16” groups, animals received an i.v. pre-injection (15 min) of the corresponding compound (3 mg/kg). Results are expressed as % injected dose/g tissue ± SEM. Cx: cortex; Stri: striatum; Hip: hippocampus, Cb: cerebellum.
Blocking in vivo experiments, consisting of a pretreatment with either celecoxib or cold 16 (3 mg/kg) 15 min before injection of the radiotracer, are also presented in Figure 3. […] This confirmed that the low in vivo accumulation observed consisted of nonspecific binding.
Animals. All procedures were conducted in accordance with the requirements of the European Community Council for the care of laboratory animals 2010/63/EU, and approved by the regional ethical committee (Authorization N°2015022011523044). Experiments were carried out on adult Wistar rats (Centre d’Elevage René Janvier, Le Genest-St-Isle, France) weighing 276 ± 19 g at the beginning of the experiments. Animals were housed in groups of two per cage in a temperature and humidity controlled environment (temperature 21 °C ± 1 °C; hygrometry 55% ± 5%), under a 12 h light/dark cycle with food and water available ad libitum.
Surgery: Surgery was performed under isoflurane (AErrane, Baxter, France) anaesthesia (4% for anaesthesia induction and thereafter 2% for its maintenance, in N2O-O2: 70%-30%). The animal's body temperature (36.8 ± 0.5 °C) was monitored with a homoeothermic probe throughout surgery. A unilateral striatal QA lesion was induced in 18 adult male Wistar rats as previously described^14. This procedure results in a well-delineated reproducible excitotoxic lesion to the striatum and ipsilateral cortex.
Ex vivo cerebral biodistribution studies were performed with [^18F]16 in QA lesioned animals at 7 days post lesion (n=6 per group). Rats were i.v. injected (penis vein) with [^18F]16 (2.5 ± 1 MBq) in 300 μL normal saline). […] Animals were sacrificed by decapitation 60 min post [^18F]16 injection. The whole brain was quickly removed and several brain areas (cerebellum, left and right hippocampus, left and right frontal cortex, and left and right striatum), together with the femur, to detect potential in vivo defluorination of the tracer, were dissected and weighed, and their radioactivity was measured using an automated gamma counter (2480 Gamma counter Wizard, Perkin Elmer). The percentage of injected dose per gram tissue (%ID/g) was calculated by comparison with samples to standard dilutions of the initial injected solution.
Statistical analysis: Results were expressed as mean ± standard error of the mean (SEM). Groups of rats (control vs unlabeled compound 16 preinjection, or control vs celecoxib preinjection) were compared using the Mann–Whitney test. Comparisons of binding between ipsi- and contralateral brain structures were performed using the Wilcoxon one-tailed test. The level of significance was p<0.05 (XLStat software®).

The target in a further data set is T2, human recombinant COX-2 (Homo sapiens, UniProt P35354).
T2 construct: purchased Cayman Chemical 700100, No. 760111
T2 sequence (P35354 18-604): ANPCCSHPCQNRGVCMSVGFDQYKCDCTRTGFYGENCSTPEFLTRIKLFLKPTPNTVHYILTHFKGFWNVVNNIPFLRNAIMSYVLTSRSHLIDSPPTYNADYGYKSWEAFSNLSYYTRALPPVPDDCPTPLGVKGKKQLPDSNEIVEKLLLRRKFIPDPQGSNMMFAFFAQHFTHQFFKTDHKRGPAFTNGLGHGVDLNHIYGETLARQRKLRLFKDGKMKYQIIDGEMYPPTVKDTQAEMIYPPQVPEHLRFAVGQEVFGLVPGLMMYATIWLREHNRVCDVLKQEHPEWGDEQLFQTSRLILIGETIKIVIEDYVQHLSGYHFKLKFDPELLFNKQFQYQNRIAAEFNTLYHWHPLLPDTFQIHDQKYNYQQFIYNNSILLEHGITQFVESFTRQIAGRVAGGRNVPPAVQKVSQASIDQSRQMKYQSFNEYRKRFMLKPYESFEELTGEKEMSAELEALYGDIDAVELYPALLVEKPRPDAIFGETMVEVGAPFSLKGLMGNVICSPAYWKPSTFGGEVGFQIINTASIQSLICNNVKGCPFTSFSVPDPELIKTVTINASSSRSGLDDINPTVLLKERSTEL
Nature of the data set: COX Inhibitor Screening Kit (Cayman), fluorescence-based, COX-2 inhibition. Particulars: for fold decrease in COX-2 activity versus analog: 41 and 42 versus 14, 17 versus 16; for COX-2 activity in words: SAR discussion. In kind it is biochemical.

The mark [1] stands for this setting: means of triplicates, except DuP-697 (n = 27) and Celecoxib (n = 5).

Like-named read-outs stand apart in the source and are kept apart here.

In the case of `NS(=O)(=O)c1ccc(-n2nc3ccccc3c2-c2ccc([18F])cc2)cc1` [[^18F]16, 4-[3-(4-[^18F]Fluorophenyl)indazol-2-yl]benzenesulfonamide], the defluorination in vivo entry on COX-2 (from femur uptake, rats) is “negligible defluorination”. Moreover, the “decrease in accumulation after blocking pretreatment” value at COX-2 (pretreatment with celecoxib or cold 16 (3 mg/kg i.v.) 15 min before radiotracer) is “In none of these experiments was a decrease in [^18F]16 accumulation observed”. Also, the “bone uptake in the femur” value at COX-2 (rats, 60 min after i.v. injection) is given as 0.154 ± 0.032 %ID/g tissue. Moreover, the “accumulation in activated brain areas compared to contralateral striatum and cortex” value at COX-2 (rats, 7 days after intrastriatal QA, 60 min after i.v. injection) was “no statistically significant difference”. Besides, at COX-2 (rats, preliminary results), the “passage through the blood-brain-barrier (BBB)” value is recorded as “low passage”.

`CS(=O)(=O)c1ccc(-n2nc3ccccc3c2-c2ccc(F)cc2)cc1` [compound 14, 3-(4-Fluorophenyl)-2-(4-methylsulfonylphenyl)indazole] yielded a melting point of 173 to 175 °C. Also, the IC50 at human recombinant COX-2 was about 1 µM. For the same compound, the IC50 at human recombinant COX-2 (setting [1]) was 1.46 ± 0.5 µM.

Consider `CS(=O)(=O)c1ccc(-c2c3ccccc3nn2-c2ccc(F)cc2)cc1` [compound 15, 2-(4-Fluorophenyl)-3-(4-methylsulfonylphenyl)indazole], for which the melting point lay in the range of 198 to 200 °C. Also, the IC50 at human recombinant COX-2 is at most 2 µM. The IC50 on human recombinant COX-2 (setting [1]) was found to be 2.3 ± 0.5 µM.

Take `NS(=O)(=O)c1ccc(-n2nc3ccccc3c2-c2cccc(F)c2)cc1` [compound 17, 4-[3-(3-Fluorophenyl)indazol-2-yl]benzenesulfonamide]: the melting point was over 250 °C. In addition, at human recombinant COX-2, the “fold decrease in COX-2 activity versus analog” value amounted to 10 fold. Besides, the IC50 at human recombinant COX-2 (setting [1]) was found to be 4.2 ± 0.4 µM.

In the case of `Cc1ccc(-c2c3ccccc3nn2-c2ccc(S(C)(=O)=O)cc2)cc1F` [compound 18, 3-(3-Fluoro-4-methyl-phenyl)-2-(4-methylsulfonylphenyl)indazole], the melting point fell in the range of 149 to 151 °C. Further, the IC50 on human recombinant COX-2 (setting [1]) turned out to be 1.03 ± 0.2 µM.

Turning to `CCOc1ccc(-c2c3ccccc3nn2-c2ccc(S(C)(=O)=O)cc2)cc1F` [compound 19, 3-(4-Ethoxy-3-fluoro-phenyl)-2-(4-methylsulfonylphenyl)indazole], the melting point lay in the range of 138 to 140 °C. The IC50 at human recombinant COX-2 (setting [1]) was over 25 µM.

`CCOc1ccc(-c2c3ccccc3nn2-c2ccc(S(C)(=O)=O)cc2)cc1C(F)(F)F` [compound 20, 3-[4-Ethoxy-3-(trifluoromethyl)phenyl]-2-(4-methylsulfonylphenyl)indazole] displayed a melting point of 196 to 198 °C.

The compound `CS(=O)(=O)c1ccc(-n2nc3ccccc3c2-c2ccc(Cl)c(C(F)(F)F)c2)cc1` [compound 21, 3-[4-Chloro-3-(trifluoromethyl)phenyl]-2-(4-methylsulfonylphenyl)indazole] showed a melting point of 197 to 199 °C. In addition, the IC50 on human recombinant COX-2 (setting [1]) was 1.1 ± 0.3 µM.

As for `CS(=O)(=O)c1ccc(-n2nc3ccccc3c2-c2ccc(F)nc2)cc1` [compound 22, 3-(6-Fluoro-3-pyridyl)-2-(4-methylsulfonylphenyl)indazole], the melting point was 216 to 218 °C. The IC50 at human recombinant COX-2 (setting [1]) is over 25 µM.

In the case of `CS(=O)(=O)c1ccc(-n2nc3ccccc3c2-c2ccc(F)nc2F)cc1` [compound 23, 3-(2,6-Difluoro-3-pyridyl)-2-(4-methylsulfonylphenyl)indazole], the melting point was 84 to 86 °C. The IC50 on human recombinant COX-2 (setting [1]) was over 25 µM.

For `COc1ccc(-c2c3ccccc3nn2-c2ccc(S(C)(=O)=O)cc2)cn1` [compound 24, 3-(6-Methoxy-3-pyridyl)-2-(4-methylsulfonylphenyl)indazole], the melting point lay within 146 to 148 °C. Also, the “COX-2 activity in words” value on human recombinant COX-2 is on record as “moderate activity”. The IC50 on human recombinant COX-2 (setting [1]) turned out to be 2.98 ± 0.4 µM.

As for `COc1cncc(-c2c3ccccc3nn2-c2ccc(S(C)(=O)=O)cc2)c1` [compound 25, 3-(5-Methoxy-3-pyridyl)-2-(4-methylsulfonylphenyl)indazole], the melting point fell in the range of 215 to 217 °C. For the same compound, the IC50 on human recombinant COX-2 (setting [1]) is over 25 µM.

`CCOc1ccc(-c2c3ccccc3nn2-c2ccc(S(C)(=O)=O)cc2)cn1` [compound 26, 3-(6-Ethoxy-3-pyridyl)-2-(4-methylsulfonylphenyl)indazole] registered a melting point of 147 to 149 °C. Moreover, the “COX-2 activity in words” value at human recombinant COX-2 is reported as “moderate activity”. In addition, the IC50 at human recombinant COX-2 (setting [1]) was 4.46 ± 0.4 µM.

In turn, `CCOc1ncc(-c2c3ccccc3nn2-c2ccc(S(C)(=O)=O)cc2)cn1` [compound 27, 3-(2-Ethoxypyrimidin-5-yl)-2-(4-methylsulfonylphenyl)indazole] registered a melting point of 217 to 219 °C. At human recombinant COX-2, the “COX-2 activity in words” value is “totally inactive”. For the same compound, the IC50 at human recombinant COX-2 (setting [1]) was over 25 µM.

Compound `CS(=O)(=O)c1ccc(-n2nc3cccnc3c2-c2ccc(F)cc2)cc1` [compound 39, 3-(4-Fluorophenyl)-2-(4-methylsulfonylphenyl)pyrazolo[4,3-b]pyridine] displayed a melting point of 219 to 221 °C. Besides, the IC50 at human recombinant COX-2 (setting [1]) is over 25 µM.

Consider `CS(=O)(=O)c1ccc(-n2nc3cnccc3c2-c2ccc(F)cc2)cc1` [compound 40, 3-(4-Fluorophenyl)-2-(4-methylsulfonylphenyl)pyrazolo[3,4-c]pyridine], for which the IC50 on human recombinant COX-2 (setting [1]) was found to be 4.42 ± 0.6 µM.

Turning to `CS(=O)(=O)c1ccc(-n2nc3ncccc3c2-c2ccc(F)cc2)cc1` [compound 41, 3-(4-Fluorophenyl)-2-(4-methylsulfonylphenyl)pyrazolo[3,4-b]pyridine], the “fold decrease in COX-2 activity versus analog” value at human recombinant COX-2 is 4 fold. The IC50 on human recombinant COX-2 (setting [1]) was 4.75 ± 0.6 µM.

Turning to `NS(=O)(=O)c1ccc(-n2nc3ccccc3c2-c2ccc([N+](=O)[O-])cc2)cc1` [compound 42, 4-[3-(4-Nitrophenyl)indazol-2-yl]benzenesulfonamide], the melting point lay within 221 to 223 °C. Also, on human recombinant COX-2, the “fold decrease in COX-2 activity versus analog” value is on record as 4 fold.

As a reminder, the IC50 is the concentration needed to halve the response being measured. What is called melting point is the temperature of the solid-liquid transition.

The record behind these values is article PMC6211253, “Design of selective COX-2 inhibitors in the (aza)indazole series. Chemistry, in vitro studies, radiochemistry and evaluations in rats of a [^18F] PET tracer” (Journal of Enzyme Inhibition and Medicinal Chemistry, 2018).
